According to patent publication US20110033387A1, “METHOD OF DETERMINATION OF PDH ACTIVITY AND IMAGING MEDIA FOR USE IN SAID METHOD” (GE HEALTHCARE LIMITED, priority 2007, published 2011):

Tests used:
PDH [1] = test: PDH activity by 13C-MR detection (13C-bicarbonate to 13C-pyruvate ratio) in STZ Type 1 diabetes model; type: in vivo, male Wistar rats; details: single i.p. injection 50 mg/kg, five days after induction, rat heart, each rat its own control
Description: Initial PDH activity (baseline) was determined in a first group of 6 rats according to Example 3. […] Five days after STZ-diabetes induction, PDH activity was determined again, each rat served as its own experimental control.
(§1) All rats were anaesthetised using isofluorane (2% in oxygen) and kept on a heated mat. Care was taken to maintain body temperature at 37° C. A catheter was introduced into the tail vein, and rats were then placed in a home-built animal handling system. ECG, respiration rate, and body temperature were monitored, and air heating was provided. Anaesthesia was continued by means of isofluorane (1.7%) delivered to a nose cone.
1 cm^3 of the imaging medium as prepared in Example 1 was injected over 10 s via the tail vein catheter in the anaesthetised rat. […]
(§2) The series of cardiac ^13C MR spectra were analysed using the AMARES algorithm as implemented in the jMRUI software package (Naressi et al., Computers in Biology and Medicine, 31(4), 2001, 269-286 and Naressi et al., Magnetic Resonance Materials in Physics, Biology and Medicine, 12(2-3), 2001, 141-152). […]
Maximum pyruvate peak area was calculated for each series of spectra, and was used to calculate maximum bicarbonate/pyruvate ratio. […] Parameters describing the kinetic progression of bicarbonate, namely time to appearance, time to maximum, and decay time to half maximum were also calculated.

PDH [2] = test: PDH flux by cardiac 13C-MR with imaging medium with or without malate, fed and fasted rats; type: in vivo, male Wistar rats; details: 40 μmol hyperpolarised 13C-pyruvate alone, fasted vs fed rats
Description: as §1
A home-built ^1H/^13C butterfly coil was fit over the rat chest, localising signal from the heart. Rats were positioned in a 7 T horizontal bore MR scanner interfaced to a Varian Inova console. Correct positioning was confirmed by the acquisition of an axial proton FLASH image (TE/TR=1.17/2.33 ms, Matrix size=64×64, FOV=60×60 mm, Slice thickness=2.5 mm, Excitation flip angle=15°). […]
as §2
Maximum pyruvate peak area was calculated for each series of spectra, and was used to calculate maximum bicarbonate/pyruvate ratio. […] Parameters describing the kinetic progression of bicarbonate, namely time to appearance, time to maximum, and decay time to half maximum were also calculated. […]

[3] = T1 relaxation of 13C1-pyruvate in human full blood; type: physicochemical; details: human full blood at 37° C.

Compound: CN(N=O)C(=O)N[C@H]1C(O)O[C@H](CO)[C@@H](O)[C@@H]1O (mixture of isomers) [STZ, Streptozotocin]
- ratio of the 13C-bicarbonate to 13C-pyruvate peak amplitude / PDH activity, before vs after STZ injection (PDH [1]): decrease in PDH activity

Compound: CC(=O)C(=O)O [^13C1-pyruvate, sodium ^13C1-pyruvate]
- PDH flux lower in fasted rats compared with fed rats (PDH [2]): 55%
- T1 relaxation [3]: about 42 s
